Experimental data taken from ChEMBL document CHEMBL2390902, “Discovery of 1-(1,3,5-triazin-2-yl)piperidine-4-carboxamides as inhibitors of soluble epoxide hydrolase” (Bioorg Med Chem Lett, 2013).

Assays:
[1] = Oral bioavailability in rat; assay type: ADME, organism-based; conditions: in vivo
Epoxide hydrolase 1 = Epoxide hydrolase 1 (Homo sapiens, UniProt P07099)
[2] = target: Bifunctional epoxide hydrolase 2 (Rattus norvegicus, UniProt P80299)
[3] = target: Sodium-dependent dopamine transporter (Homo sapiens) (UniProt Q01959); assay: Inhibition of human dopamine transporter at 1 uM relative to control
Sodium-dependent dopamine transporter (Homo sapiens), sequence (Q01959 whole entry): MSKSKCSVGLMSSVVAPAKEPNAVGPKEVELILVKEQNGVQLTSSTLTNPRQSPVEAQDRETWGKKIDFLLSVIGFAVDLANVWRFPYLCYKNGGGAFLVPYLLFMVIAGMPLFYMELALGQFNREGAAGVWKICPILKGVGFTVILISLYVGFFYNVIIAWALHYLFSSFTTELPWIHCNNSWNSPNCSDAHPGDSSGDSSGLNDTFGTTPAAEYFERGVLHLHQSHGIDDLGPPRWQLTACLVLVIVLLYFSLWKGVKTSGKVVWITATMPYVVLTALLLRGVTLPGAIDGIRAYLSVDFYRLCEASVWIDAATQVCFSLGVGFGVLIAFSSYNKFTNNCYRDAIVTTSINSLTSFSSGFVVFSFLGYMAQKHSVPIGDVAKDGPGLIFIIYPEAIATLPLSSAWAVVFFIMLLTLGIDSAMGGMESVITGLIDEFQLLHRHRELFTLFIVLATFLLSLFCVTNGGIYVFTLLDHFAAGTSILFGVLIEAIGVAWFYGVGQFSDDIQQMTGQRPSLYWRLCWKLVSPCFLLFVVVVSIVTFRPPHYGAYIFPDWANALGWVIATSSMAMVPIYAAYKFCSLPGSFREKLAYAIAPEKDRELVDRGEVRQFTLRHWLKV

[4] = target: Vasoactive intestinal polypeptide receptor 1 (Homo sapiens) (UniProt P32241); assay: Inhibition of human VPAC1 receptor at 1 uM relative to control
[5] = target: 5-hydroxytryptamine receptor 2A (Homo sapiens) (UniProt P28223); assay: Inhibition of human 5-HT2A receptor at 1 uM relative to control
5-hydroxytryptamine receptor 2A (Homo sapiens), sequence (P28223 whole entry): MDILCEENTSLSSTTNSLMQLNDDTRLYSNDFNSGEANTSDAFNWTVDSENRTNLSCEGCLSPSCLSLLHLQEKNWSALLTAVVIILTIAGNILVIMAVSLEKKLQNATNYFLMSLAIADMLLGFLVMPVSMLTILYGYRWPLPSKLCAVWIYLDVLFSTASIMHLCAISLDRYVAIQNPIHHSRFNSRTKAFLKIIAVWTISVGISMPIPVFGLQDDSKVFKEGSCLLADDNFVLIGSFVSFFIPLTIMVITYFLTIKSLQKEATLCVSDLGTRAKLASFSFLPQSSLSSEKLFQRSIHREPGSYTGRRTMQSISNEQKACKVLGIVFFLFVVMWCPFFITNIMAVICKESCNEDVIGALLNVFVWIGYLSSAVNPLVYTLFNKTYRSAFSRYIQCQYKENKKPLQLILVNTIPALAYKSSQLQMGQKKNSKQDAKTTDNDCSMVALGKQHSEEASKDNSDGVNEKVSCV

[6] = target: 5-hydroxytryptamine receptor 1A (Homo sapiens) (UniProt P08908); assay: Inhibition of human 5-HT1A receptor at 1 uM relative to control
5-hydroxytryptamine receptor 1A (Homo sapiens), sequence (P08908 whole entry): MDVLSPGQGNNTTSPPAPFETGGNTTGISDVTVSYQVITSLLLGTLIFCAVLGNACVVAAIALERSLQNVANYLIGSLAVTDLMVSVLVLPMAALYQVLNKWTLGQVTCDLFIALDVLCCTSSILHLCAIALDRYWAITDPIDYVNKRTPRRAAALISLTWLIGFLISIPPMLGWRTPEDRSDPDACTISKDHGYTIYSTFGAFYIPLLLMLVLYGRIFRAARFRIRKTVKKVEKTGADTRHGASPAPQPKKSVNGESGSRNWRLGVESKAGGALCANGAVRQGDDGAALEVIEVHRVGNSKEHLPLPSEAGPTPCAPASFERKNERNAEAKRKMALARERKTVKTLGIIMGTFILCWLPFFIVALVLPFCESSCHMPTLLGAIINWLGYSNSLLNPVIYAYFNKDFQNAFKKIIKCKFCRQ

Homo sapiens = species: Homo sapiens; assay: Inhibition of human delta2 opioid receptor at 1 uM relative to control
[7] = target: Neurotensin receptor type 1 (Homo sapiens) (UniProt P30989); assay: Inhibition of human NTS1 receptor at 1 uM relative to control
Neurotensin receptor type 1 (Homo sapiens), sequence (P30989 whole entry): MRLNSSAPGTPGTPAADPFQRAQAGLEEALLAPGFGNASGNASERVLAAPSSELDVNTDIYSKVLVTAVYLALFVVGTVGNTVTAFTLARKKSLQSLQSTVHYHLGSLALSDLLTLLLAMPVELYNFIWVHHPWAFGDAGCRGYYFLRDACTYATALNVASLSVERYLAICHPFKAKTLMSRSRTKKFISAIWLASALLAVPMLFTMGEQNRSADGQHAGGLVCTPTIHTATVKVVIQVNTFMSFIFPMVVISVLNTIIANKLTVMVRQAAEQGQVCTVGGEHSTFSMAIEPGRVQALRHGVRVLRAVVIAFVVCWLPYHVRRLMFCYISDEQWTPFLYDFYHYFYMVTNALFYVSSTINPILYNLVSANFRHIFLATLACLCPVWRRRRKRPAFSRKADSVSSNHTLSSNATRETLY

[8] = target: Neuropeptide Y receptor type 1 (Homo sapiens) (UniProt P25929); assay: Inhibition of human Y1 receptor at 1 uM relative to control
Neuropeptide Y receptor type 1 (Homo sapiens), sequence (P25929 whole entry): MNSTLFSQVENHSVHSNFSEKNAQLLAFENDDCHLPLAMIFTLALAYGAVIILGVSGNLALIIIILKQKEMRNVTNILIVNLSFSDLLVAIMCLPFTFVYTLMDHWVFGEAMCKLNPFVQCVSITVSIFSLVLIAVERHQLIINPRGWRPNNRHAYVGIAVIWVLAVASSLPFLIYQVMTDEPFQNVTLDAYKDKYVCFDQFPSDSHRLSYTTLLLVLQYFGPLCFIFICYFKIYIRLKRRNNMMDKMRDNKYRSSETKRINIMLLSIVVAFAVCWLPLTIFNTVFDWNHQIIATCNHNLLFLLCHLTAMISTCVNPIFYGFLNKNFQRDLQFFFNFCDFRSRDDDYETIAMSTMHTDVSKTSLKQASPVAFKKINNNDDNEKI

[9] = target: Muscarinic acetylcholine receptor M4 (Homo sapiens) (UniProt P08173); assay: Inhibition of human M4 receptor at 1 uM relative to control
[10] = target: Muscarinic acetylcholine receptor M2 (Homo sapiens) (UniProt P08172); assay: Inhibition of human M2 receptor at 1 uM relative to control
[11] = target: C-X-C chemokine receptor type 2 (Homo sapiens) (UniProt P25025); assay: Inhibition of human CXCR2 receptor at 1 uM relative to control
C-X-C chemokine receptor type 2 (Homo sapiens), sequence (P25025 whole entry): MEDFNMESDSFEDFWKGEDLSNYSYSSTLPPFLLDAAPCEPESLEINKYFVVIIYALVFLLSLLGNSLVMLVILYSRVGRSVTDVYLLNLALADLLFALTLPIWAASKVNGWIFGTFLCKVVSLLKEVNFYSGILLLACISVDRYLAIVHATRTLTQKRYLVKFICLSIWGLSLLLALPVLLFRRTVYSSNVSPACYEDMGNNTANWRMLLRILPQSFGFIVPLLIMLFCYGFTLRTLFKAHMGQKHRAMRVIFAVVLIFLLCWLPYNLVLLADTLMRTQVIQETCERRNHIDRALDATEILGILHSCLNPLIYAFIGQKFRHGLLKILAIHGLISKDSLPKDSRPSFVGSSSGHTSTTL

[12] = target: Galanin receptor type 2 (Homo sapiens) (UniProt O43603); assay: Inhibition of human GAL2 receptor at 1 uM relative to control
[13] = target: Endothelin-1 receptor (Homo sapiens) (UniProt P25101); assay: Inhibition of human ETA receptor at 1 uM relative to control
Endothelin-1 receptor (Homo sapiens), sequence (P25101 whole entry): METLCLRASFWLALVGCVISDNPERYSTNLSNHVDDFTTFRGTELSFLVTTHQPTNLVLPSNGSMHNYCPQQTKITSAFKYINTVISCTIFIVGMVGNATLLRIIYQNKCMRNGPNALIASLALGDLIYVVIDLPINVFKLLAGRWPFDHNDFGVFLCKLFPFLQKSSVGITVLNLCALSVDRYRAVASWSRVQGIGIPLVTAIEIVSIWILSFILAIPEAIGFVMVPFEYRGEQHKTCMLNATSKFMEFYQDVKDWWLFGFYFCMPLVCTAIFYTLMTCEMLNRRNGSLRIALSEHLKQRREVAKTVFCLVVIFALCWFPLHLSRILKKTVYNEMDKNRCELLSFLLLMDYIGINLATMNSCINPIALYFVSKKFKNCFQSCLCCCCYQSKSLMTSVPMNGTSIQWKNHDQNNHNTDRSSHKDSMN

[14] = target: D(1A) dopamine receptor (Homo sapiens) (UniProt P21728); assay: Inhibition of human dopamine D1 receptor at 1 uM relative to control
D(1A) dopamine receptor (Homo sapiens), sequence (P21728 whole entry): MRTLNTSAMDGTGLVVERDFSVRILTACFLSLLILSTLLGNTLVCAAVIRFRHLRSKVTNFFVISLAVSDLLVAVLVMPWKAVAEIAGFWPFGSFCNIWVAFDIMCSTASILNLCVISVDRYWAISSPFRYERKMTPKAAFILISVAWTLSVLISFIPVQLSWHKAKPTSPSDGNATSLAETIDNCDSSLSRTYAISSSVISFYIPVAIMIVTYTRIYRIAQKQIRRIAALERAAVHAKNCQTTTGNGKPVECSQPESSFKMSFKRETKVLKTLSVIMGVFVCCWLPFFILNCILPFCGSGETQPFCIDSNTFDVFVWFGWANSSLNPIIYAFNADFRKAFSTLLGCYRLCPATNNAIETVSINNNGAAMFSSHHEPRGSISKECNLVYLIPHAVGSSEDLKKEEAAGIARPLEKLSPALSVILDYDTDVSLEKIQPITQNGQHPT

[15] = target: D(2) dopamine receptor (Homo sapiens) (UniProt P14416); assay: Inhibition of human dopamine D2S receptor at 1 uM relative to control
D(2) dopamine receptor (Homo sapiens), sequence (P14416 whole entry): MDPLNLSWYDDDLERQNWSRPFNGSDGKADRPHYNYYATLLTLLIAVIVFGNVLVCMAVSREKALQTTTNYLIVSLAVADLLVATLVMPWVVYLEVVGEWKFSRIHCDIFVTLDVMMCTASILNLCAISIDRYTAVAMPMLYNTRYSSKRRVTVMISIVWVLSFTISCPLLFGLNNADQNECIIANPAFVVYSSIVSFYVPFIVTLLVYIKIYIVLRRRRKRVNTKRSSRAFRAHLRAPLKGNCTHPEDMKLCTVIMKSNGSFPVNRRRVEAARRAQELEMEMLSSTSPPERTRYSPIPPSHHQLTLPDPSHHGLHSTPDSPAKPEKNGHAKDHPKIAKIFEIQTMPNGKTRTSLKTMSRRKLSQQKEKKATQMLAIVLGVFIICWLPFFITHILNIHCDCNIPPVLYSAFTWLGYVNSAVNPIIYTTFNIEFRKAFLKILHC

[16] = target: Type-1 angiotensin II receptor (Homo sapiens) (UniProt P30556); assay: Inhibition of human AT1 receptor at 1 uM relative to control
Type-1 angiotensin II receptor (Homo sapiens), sequence (P30556 whole entry): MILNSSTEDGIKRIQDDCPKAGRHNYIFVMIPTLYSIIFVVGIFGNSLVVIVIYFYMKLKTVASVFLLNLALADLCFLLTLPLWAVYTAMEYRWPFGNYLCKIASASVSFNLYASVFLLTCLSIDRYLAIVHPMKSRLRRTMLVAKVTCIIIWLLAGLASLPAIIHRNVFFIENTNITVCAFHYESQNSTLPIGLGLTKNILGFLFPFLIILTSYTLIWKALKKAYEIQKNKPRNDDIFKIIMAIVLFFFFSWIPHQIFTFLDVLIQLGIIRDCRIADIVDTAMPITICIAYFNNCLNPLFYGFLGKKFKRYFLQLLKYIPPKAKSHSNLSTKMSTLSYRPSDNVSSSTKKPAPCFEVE

[17] = target: Adenosine receptor A1 (Homo sapiens) (UniProt P30542); assay: Inhibition of human adenosine A1 receptor at 1 uM relative to control
Rattus norvegicus [18] = assay: Free maximum concentration of drug in rat at 0.2 mg/kg, po; assay type: ADME, organism-based; design: dose 0.2 mg/kg, route oral; conditions: in vivo
Rattus norvegicus [19] = assay: Free maximum concentration of drug in rat at 20 mg/kg, po; assay type: ADME, organism-based; design: dose 20 mg/kg, route oral; conditions: in vivo
[20] = Cmax in rat at 0.2 mg/kg, po; assay type: ADME, organism-based; design: dose 0.2 mg/kg, route oral; conditions: in vivo
[21] = Cmax in rat at 2 mg/kg, po; assay type: ADME, organism-based; design: dose 2 mg/kg, route oral; conditions: in vivo
[22] = target: Sodium channel protein type 5 subunit alpha (Homo sapiens, UniProt Q14524); assay: Inhibition of NaV1.5 (unknown origin)
Cytochrome P450 2C8 = Cytochrome P450 2C8 (Homo sapiens, UniProt P10632); assay: Inhibition of CYP2C8 (unknown origin); assay type: ADME
[23] = target: T1, Bifunctional epoxide hydrolase 2 (Homo sapiens, UniProt P34913)
T1 sequence (P34913 whole entry): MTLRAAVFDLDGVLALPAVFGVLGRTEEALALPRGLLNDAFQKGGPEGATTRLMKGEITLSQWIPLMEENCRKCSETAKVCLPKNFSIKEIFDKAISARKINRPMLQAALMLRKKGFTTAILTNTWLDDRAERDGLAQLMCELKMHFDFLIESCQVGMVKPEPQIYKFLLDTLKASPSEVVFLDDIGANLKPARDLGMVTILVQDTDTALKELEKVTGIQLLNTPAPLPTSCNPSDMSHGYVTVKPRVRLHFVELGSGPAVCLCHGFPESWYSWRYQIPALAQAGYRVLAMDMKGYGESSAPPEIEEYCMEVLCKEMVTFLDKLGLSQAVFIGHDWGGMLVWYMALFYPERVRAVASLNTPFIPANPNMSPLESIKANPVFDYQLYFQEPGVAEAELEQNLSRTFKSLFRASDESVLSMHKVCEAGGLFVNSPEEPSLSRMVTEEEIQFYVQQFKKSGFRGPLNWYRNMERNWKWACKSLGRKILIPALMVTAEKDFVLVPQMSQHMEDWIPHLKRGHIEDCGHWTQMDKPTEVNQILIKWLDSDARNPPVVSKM
Description: Inhibition of human soluble epoxide hydrolase overexpressed in HEK293F cells using EET as substrate assessed as formation of DHET incubated for 30 mins prior to substrate addition measured after 60 mins by ELISA

Bifunctional epoxide hydrolase 2 (Rattus norvegicus, UniProt P80299), sequence (P80299 whole entry): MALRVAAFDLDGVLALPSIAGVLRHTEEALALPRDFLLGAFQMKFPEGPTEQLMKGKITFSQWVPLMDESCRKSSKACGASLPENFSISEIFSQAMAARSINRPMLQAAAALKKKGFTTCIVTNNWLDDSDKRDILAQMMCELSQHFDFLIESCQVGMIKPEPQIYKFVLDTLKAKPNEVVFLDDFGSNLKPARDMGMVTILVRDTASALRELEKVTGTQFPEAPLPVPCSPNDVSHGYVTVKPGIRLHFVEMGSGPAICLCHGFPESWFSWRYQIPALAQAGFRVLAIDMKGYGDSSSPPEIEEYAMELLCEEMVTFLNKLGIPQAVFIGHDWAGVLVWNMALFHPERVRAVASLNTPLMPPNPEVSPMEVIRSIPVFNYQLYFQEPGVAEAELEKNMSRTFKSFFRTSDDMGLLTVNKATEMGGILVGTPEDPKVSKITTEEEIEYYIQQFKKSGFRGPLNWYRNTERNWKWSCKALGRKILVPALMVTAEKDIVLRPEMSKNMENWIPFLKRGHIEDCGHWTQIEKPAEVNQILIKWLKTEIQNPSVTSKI

Q: What does the source list for `CNc1nc(C)nc(N2CCC(C(=O)NCc3ccc(Br)cc3OC(F)(F)F)CC2)n1`?
A: bioavailability [1]: 100%; IC50 (Epoxide hydrolase 1): > 50000 nM; IC50 [2]: 2 nM; inhibition [3]: < 50%; inhibition [4]: < 50%; inhibition [5]: < 50%; inhibition [6]: < 50%; inhibition (Homo sapiens): < 50%; inhibition [7]: < 50%; inhibition [8]: < 50%; inhibition [9]: < 50%; inhibition [10]: < 50%; inhibition [11]: < 50%; inhibition [12]: < 50%; inhibition [13]: < 50%; inhibition [14]: < 50%; inhibition [15]: < 50%; inhibition [16]: < 50%; inhibition [17]: < 50%; fCmax (Rattus norvegicus [18]): 0.25 nM; fCmax (Rattus norvegicus [19]): 24 nM; Cmax [20]: 0.016 µM; Cmax [21]: 0.223 µM; IC50 [22]: > 10000 nM; IC50 (Cytochrome P450 2C8): > 30000 nM; IC50 [23]: 3 nM
